{
  "source": "patent US11007232B2",
  "about": "“Use of neural cells derived from human pluripotent stem cells for the treatment of neurodegenerative diseases” (priority 2013, dated 2021)",
  "test_system": "DA neuron precursor cells",
  "assay": "Differentiation of DA neuron precursor cells into DA neurons with guggulsterone, FACS for TH",
  "type": "cell-based, human",
  "settings": "guggulsterone 2.5 μM for two weeks; after 30 days of differentiation",
  "method": "The DA neuron precursor cells were plated at 2000 cells/well of a 96-well plate and treated with guggulsterone (GS) at 2.5 μM for two weeks. After 30 days of differentiation, GS-treated neurons appeared mature with elaborate neurite extensions. At this stage, the derived cells expressed not only the major neuronal marker β-III-tubulin (TUJ1), but also the important DA neuron markers tyrosine hydroxylase (TH), the dopamine transporter (Dat), Foxa2, Nurr-1, and Girk2. […] The method specifically involved treating both hESC-H9-NSCs (Invitrogen) and hPSC-NSCs with Purmorphamine (2 μM) and FGF8 (100 ng/mL) in NB medium [NeuroBasal medium, 1× GlutaMAX, 1× N2/B27 Supplement (Invitrogen)] for 7 days. […] Two weeks after treatment with small molecules, all wells were visually observed and scored based on neurite density and dopamine release. For measuring neurite density, cells were fixed with 4% paraformaldehyde and phase contrast images were acquired using Cellavista Cell Imaging System (Roche Applied Science) from randomly selected fields. Neurite density was measured using the Cellavista density software image processing program. Each experimental condition was done in duplicate wells, and at least three independent experiments were conducted to acquire the final results.",
  "data": [
    {"smiles": "C/C=C1\\C(=O)C[C@H]2[C@@H]3CCC4=CC(=O)CC[C@]4(C)[C@H]3CC[C@]12C", "note": "[guggulsterone]", "values": [
      {"measurement": "cells gated TH positive (FACS analysis)", "result": "more than 97%"}
    ]}
  ]
}
